According to patent US20130315895A1, “COMBINATION OF A cMET INHIBITOR AND AN ANTIBODY TO HGF AND/OR cMET” (priority 2010, published 2013):

How the values were obtained:
Human U87MG Glioblastoma [1] = assay: In vivo evaluation of Compounds 3 and 45, alone and in combination with anti-HGF mAb HuL2G7, in human U87MG glioblastoma implanted nude mice (tumor growth delay method); conditions: for induction of regressions: monotherapy p.o. qd x 14; for tumor growth delays / tumor growth delays (% of median TTE of control): monotherapy p.o. qd x 14 (Table 4: Cmpd 45 136.05 mg/kg, Cmpd 3 200 mg/kg)
Protocol: B. In Vivo Evaluation of Compounds 3 and 45, Alone and in Combination with Anti-HGF mAb HuL2G7, in Human U87MG Glioblastoma Implanted Nude Mice
(§1) Female athymic nude mice (Harlan), 9 weeks of age, were fed ad libitum water (reverse osmosis, 1 ppm Cl2) and an irradiated standard rodent diet (NIH31 Modified and Irradiated) consisting of: 18% protein, 5% fat, and 5% fiber. Mice were housed on irradiated Enrich-O'Cobs™ laboratory animal bedding in static microisolators on a 12-hour light cycle at 21-22° C. (70-72° F.) and 40-60% humidity.
(§2) The human U87MG glioblastoma utilized in the present study was maintained in serial s.c. transplantation in nude mice. Mice were implanted subcutaneously in the flank with a 1 mm^3 fragment of U87MG glioblastoma. Tumors were monitored as the neoplasms reached the desired size, approximately 190 mm^3. At 12 days, when the tumors attained a size between 172-256 mm^3 in calculated tumor volume, the animals were pair-matched into various treatment groups (the mean tumor volume in each group was 190-198 mm^3). Estimated tumor volume was calculated using the formula:
(§3) where w=width and l=length in mm of a U87MG glioblastoma.
Compounds 3 and 45 were prepared by as described above. Compounds 3 and 45 were then prepared for administration as suspensions in 30% Captisol/100 mM citrate at pH 3.0. HuL2G7 was then provided as a 20.7 mg/ml stock solution in normal saline. The stock solution was diluted with normal saline to provide the formulation for injection.
(§4) The concentration of each compound was such that the desired dose was delivered in a volume of 5 μl per gram body weight. Dosing solutions of Compounds 3 and 45 were prepared fresh weekly and stored under refrigeration. Dosing solutions of HuL2G7 were prepared fresh prior to each treatment and were stored under refrigeration along with the stock solution.
On Day 1, animals were pairmatched by tumor size into 8 groups of 10 mice each. […] HuL2G7 was given i.v. at 10 mg/kg qwk×2. Treatment with all agents, either alone or in combination, was initiated on Day 1. Mice treated with monotherapy received the vehicle used for the other agent. There was a vehicle control group which received the Captisol/citrate, pH 3.0 vehicle p.o. qd×14 as well as saline i.v. qwk×2. Treatment groups were compared for statistical significance to the vehicle control. Groups that received the combinations were compared for statistical significance to the monotherapy groups that received the two agents used in combination. The experiment was terminated on Day 43.
(§5) The tumor growth delay (TGD) method was used in this study; treatment-effected median increases in time to endpoint (TTE) of various treatment groups were compared to untreated and vehicle controls. In the TGD method, each animal was euthanized as a cancer death when its U87MG glioblastoma reached a size of 2000 mm^3. TTE values were determined for all groups based on the calculated day reaching endpoint as given by the formula: […]
(§6) where TTE is expressed in days, endpoint volume is in mm^3, b is the intercept, and m is the slope of the line obtained by linear regression of a log-transformed tumor growth data set. The data set is comprised of the first observation that exceeded the study endpoint volume and the three consecutive observations that immediately preceded the attainment of the endpoint volume. The calculated TTE is usually less than the day on which an animal is euthanized for tumor size. […] Animals classified as treatment related deaths (TR) or non-treatment-related metastatic deaths (NTRm) are assigned a TTE value equal to the day of death. Animals classified as non-treatment-related deaths (NTRu or NTRa) are excluded from TTE calculations.
Treatment efficacy was determined from tumor growth delay (TGD), which is defined as the increase in the median TTE for a treatment group compared to the control group:
expressed in days, or as a percentage of the median TTE of the control group: […]

Human U87MG Glioblastoma [2] = assay: In vivo evaluation of Compound 45, alone and in combination with anti-HGF mAb HuL2G7, in human U87MG glioblastoma implanted nude mice (tumor growth delay method)
Protocol: A. In Vivo Evaluation of Compound 45, Alone and in Combination with Anti-HGF mAb HuL2G7, in Human U87MG Glioblastoma Implanted Nude Mice
as §1, with “10” for “9”, “[…])” for “Cl2)”, “Enrich-o′-Cobs™” for “Enrich-O'Cobs™”
as §2, with “glioblastoma” for “glioblastoma utilized in the present study”, “monitored twice weekly then subsequently daily” for “monitored”, “13” for “12”, “126-288” for “172-256”, “184-192” for “190-198”
as §3
Compound 45 was produced as described above. Compound 45 was then prepared for administration in 30% Captisol/25 mM citrate at pH 3.0. HuL2G7 was then provided as a 19.0 mg/ml stock solution in normal saline. The stock solution was diluted with normal saline to provide the formulation for injection.
as §4, with “Compound” for “Compounds 3 and”, “at room temperature.” for “under refrigeration.”
On Day 1, animals were pairmatched by tumor size into 16 groups of 10 mice each. Compound 45 was given p.o. at 10.8, 32.4 and 108 mg/kg qd×14. HuL2G7 was given i.v. at 1, 3 and 10 mg/kg qwk×2. Treatment with both agents either alone or in combination was initiated on Day 1. Mice treated with monotherapy received the vehicle used for the other agent. There was a vehicle control group which received the Captisol/citrate, pH 3.0 vehicle p.o. qd×14 as well as saline i.v. qwk×2. Treatment groups were compared for statistical significance to the vehicle control. Groups that received the combination were compared for statistical significance to the monotherapy groups that received the same dose of the two agents used in combination. The experiment was terminated on Day 44.
as §5
as §6, with “calculations. Treatment efficacy was determined from tumor growth delay (TGD), which is defined as the increase in the median TTE for a treatment group compared to the control group: […]” for “calculations.”

[3] = monotherapy, text summary over doses (Compound 45 daily for 14 days; HuL2G7 i.v. qwk x 2)
[4] = monotherapy: Compound 45 10.8 mg/kg p.o. qd x 14 (HuL2G7 0)
[5] = monotherapy: Compound 45 32.4 mg/kg p.o. qd x 14 (HuL2G7 0)
[6] = monotherapy: Compound 45 108 mg/kg p.o. qd x 14 (HuL2G7 0)

SMILES | induction of regressions (Human U87MG Glioblastoma [1]) | tumor growth delays (Human U87MG Glioblastoma [1]) [days] | tumor growth delays (% of median TTE of control) (Human U87MG Glioblastoma [1]) | melting point [°C] | induction of regressions (Human U87MG Glioblastoma [2]; monotherapy) | tumor growth delays (Human U87MG Glioblastoma [2]; [3]) [days] | tumor growth delays (% of median TTE of control) (Human U87MG Glioblastoma [2]; [3]) | Regressions (CR/PR per 10 mice) (Human U87MG Glioblastoma [2]; [4]) | Tumor Growth Delay (TGD) (Human U87MG Glioblastoma [2]; [4]) [days] | Regressions (CR/PR per 10 mice) (Human U87MG Glioblastoma [2]; [5]) | Tumor Growth Delay (TGD) (Human U87MG Glioblastoma [2]; [5]) [days] | Regressions (CR/PR per 10 mice) (Human U87MG Glioblastoma [2]; [6]) | Tumor Growth Delay (TGD) (Human U87MG Glioblastoma [2]; [6]) [days]
O=C(Nc1cn2nc(Sc3nnc4ccccn34)ccc2n1)C1CC1 [Compound 3, N-(6-([1,2,4]triazolo[4,3-a]pyridin-3-ylthio)imidazo[1,2-b]pyridazin-2-yl)cyclopropanecarboxamide] | Neither of these agents was able to induce regressions | 3 | ca. 23% | – | – | – | – | – | – | – | – | – | –
Cn1cc(-c2ccc3nnn(Cc4ccc5nc(NC(=O)C6CC6)cn5n4)c3c2)cn1 [Compound 13, N-(6-((6-(1-methyl-1H-pyrazol-4-yl)-1H-benzo[d][1,2,3]triazol-1-yl)methyl)imidazo[1,2-b]pyridazin-2-yl)cyclopropanecarboxamide] | – | – | – | 250.2 to 251.6 | – | – | – | – | – | – | – | – | –
Cn1cc(-c2ccc3nnc(C(F)(F)c4ccc5nc(NC(=O)C6CC6)cn5n4)n3c2)cn1 [Compound 45, N-(6-(difluoro(6-(1-methyl-1H-pyrazol-4-yl)-[1,2,4]triazolo[4,3-a]pyridin-3-yl)methyl)imidazo[1,2-b]pyridazin-2-yl)cyclopropanecarboxamide] | Neither of these agents was able to induce regressions | 3 | ca. 23% | – | Neither agent was able to induce regressions | 3 to 4 | ca. 30% | 0/10 | 0 | 0/10 | 3.9 | 0/10 | 3.1
